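96-well plates; 48 h exposure; 5 concentrations. Endpoints by linear interpolation between flanking doses. Not reached: highest tested concentration assigned. At the GI50, growth is halved.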 Calls of active or inactive are those of the source. No stated cut-off is given here; in the data, active = GI50 up to about 1.1 µM and inactive = higher.
Tests used:
Experiment in all cases: NCI-60 cell line screen, 48 h
SK-MEL-5 = system: SK-MEL-5
HOP-92 = system: HOP-92
A549 = system: A549
DMS-114 = system: DMS-114
UO-31 = system: UO-31
KM12 = system: KM12
HT-29 = system: HT-29
RPMI-8226 = system: RPMI-8226
SN12C = system: SN12C
M19-MEL = system: M19-MEL
OVCAR-4 = system: OVCAR-4
SNB-19 = system: SNB-19
SF-295 = system: SF-295
HCC 2998 = system: HCC 2998
HCT-116 = system: HCT-116
HOP-62 = system: HOP-62
HCT-15 = system: HCT-15
IGROV-1 = system: IGROV-1
SK-OV-3 = system: SK-OV-3
SF-539 = system: SF-539
SW-620 = system: SW-620
SF-268 = system: SF-268
DLD-1 = system: DLD-1
HL-60 = system: HL-60
LOX IMVI = system: LOX IMVI
CAKI-1 = system: CAKI-1
SNB-75 = system: SNB-75
NCI-H460 = system: NCI-H460
DMS-273 = system: DMS-273
KM-20L2 = system: KM-20L2
NCI/ADR-RES = system: NCI/ADR-RES
HOP-18 = system: HOP-18
OVCAR-8 = system: OVCAR-8
NCI-H226 = system: NCI-H226
MCF7 = system: MCF7
SK-MEL-2 = system: SK-MEL-2
UACC-62 = system: UACC-62
COLO 205 = system: COLO 205
OVCAR-3 = system: OVCAR-3
SNB-78 = system: SNB-78
SK-MEL-28 = system: SK-MEL-28
EKVX = system: EKVX
RXF 393 = system: RXF 393
U-251 = system: U-251
UACC-257 = system: UACC-257
A498 = system: A498
MOLT-4 = system: MOLT-4
K562 = system: K562
CCRF-CEM = system: CCRF-CEM
NCI-H23 = system: NCI-H23
NCI-H522 = system: NCI-H522
Malme-3M = system: Malme-3M
OVCAR-5 = system: OVCAR-5

For `Nc1ccn(C2C=C(CO)C(O)C2O)c(=O)c1` (stereo not drawn), which GI50 (SK-MEL-5) is on record?
Its GI50 is > 625 µM (inactive).

And the GI50 (HOP-92)?
Its GI50 is > 625 µM (inactive).

What about the GI50 (A549) of the same compound?
Its GI50 is > 625 µM (inactive).

What about the GI50 (DMS-114) of the same compound?
Its GI50 is > 625 µM (inactive).

What about the GI50 (UO-31) of the same compound?
Its GI50 is > 625 µM (inactive).

What about the GI50 (KM12) of the same compound?
The GI50 was > 625 µM (inactive).

And the GI50 (HT-29)?
Its GI50 is > 625 µM (inactive).

And the GI50 (RPMI-8226)?
Its GI50 is > 625 µM (inactive).

What about the GI50 (SN12C) of the same compound?
Its GI50 is > 625 µM (inactive).

And the GI50 (M19-MEL)?
The GI50 was > 625 µM (inactive).

And the GI50 (OVCAR-4)?
The GI50 was > 625 µM (inactive).

What about the GI50 (SNB-19) of the same compound?
The GI50 was > 625 µM (inactive).

What about the GI50 (SF-295) of the same compound?
The GI50 was > 625 µM (inactive).

And the GI50 (HCC 2998)?
The GI50 was > 625 µM (inactive).

And the GI50 (HCT-116)?
The GI50 was > 625 µM (inactive).

And the GI50 (HOP-62)?
The GI50 was > 625 µM (inactive).

And the GI50 (HCT-15)?
The GI50 was greater than 625 µM.

What about the GI50 (IGROV-1) of the same compound?
Its GI50 is > 625 µM (inactive).

What about the GI50 (SK-OV-3) of the same compound?
The GI50 was > 625 µM (inactive).

And the GI50 (SF-539)?
Its GI50 is > 625 µM (inactive).

And the GI50 (SW-620)?
Its GI50 is > 625 µM (inactive).

And the GI50 (SF-268)?
The GI50 was > 625 µM (inactive).

And the GI50 (DLD-1)?
Its GI50 is > 62.5 µM (inactive).

And the GI50 (HL-60)?
Its GI50 is > 625 µM (inactive).

And the GI50 (LOX IMVI)?
The GI50 was > 625 µM (inactive).

And the GI50 (CAKI-1)?
Its GI50 is > 625 µM (inactive).

And the GI50 (SNB-75)?
The GI50 was > 625 µM (inactive).

And the GI50 (NCI-H460)?
Its GI50 is > 625 µM (inactive).

And the GI50 (DMS-273)?
Its GI50 is > 625 µM (inactive).

And the GI50 (KM-20L2)?
The GI50 was > 625 µM (inactive).

What about the GI50 (NCI/ADR-RES) of the same compound?
Its GI50 is > 625 µM (inactive).

What about the GI50 (HOP-18) of the same compound?
The GI50 was > 625 µM (inactive).

And the GI50 (OVCAR-8)?
The GI50 was > 625 µM (inactive).

And the GI50 (NCI-H226)?
Its GI50 is > 625 µM (inactive).

What about the GI50 (MCF7) of the same compound?
Its GI50 is > 625 µM (inactive).

What about the GI50 (SK-MEL-2) of the same compound?
Its GI50 is > 625 µM (inactive).

And the GI50 (UACC-62)?
Its GI50 is > 625 µM (inactive).

And the GI50 (COLO 205)?
Its GI50 is > 625 µM (inactive).

And the GI50 (OVCAR-3)?
The GI50 was > 625 µM (inactive).

What about the GI50 (SNB-78) of the same compound?
Its GI50 is > 625 µM (inactive).

With `CCCC(=O)OCC1OC(n2ccc(N)nc2=O)C(OC(=O)CCC)C1OC(=O)CCC` (stereo not drawn) as the compound, how does the GI50 (SK-MEL-5) read?
The GI50 was > 86.5 µM (inactive).

And the GI50 (HOP-92)?
The GI50 was > 45.1 µM (inactive).

What about the GI50 (A549) of the same compound?
The GI50 was 8.05 µM (inactive).

And the GI50 (DMS-114)?
The GI50 was > 100 µM (inactive).

And the GI50 (UO-31)?
Its GI50 is 21.6 µM (inactive).

And the GI50 (KM12)?
Its GI50 is > 100 µM (inactive).

What about the GI50 (HT-29) of the same compound?
The GI50 was 99.3 µM (inactive).

What about the GI50 (RPMI-8226) of the same compound?
Its GI50 is > 100 µM (inactive).

And the GI50 (SK-MEL-28)?
The GI50 was 15.1 µM (inactive).

What about the GI50 (SN12C) of the same compound?
The GI50 was 16.5 µM (inactive).

And the GI50 (M19-MEL)?
Its GI50 is 43.2 µM (inactive).

What about the GI50 (OVCAR-4) of the same compound?
The GI50 was > 100 µM (inactive).

What about the GI50 (SNB-19) of the same compound?
Its GI50 is 24.8 µM (inactive).

And the GI50 (EKVX)?
Its GI50 is 2.25 µM (inactive).

What about the GI50 (SF-295) of the same compound?
The GI50 was > 73.5 µM (inactive).

What about the GI50 (HCC 2998) of the same compound?
Its GI50 is > 100 µM (inactive).

And the GI50 (HCT-116)?
Its GI50 is 33.3 µM (inactive).

And the GI50 (HOP-62)?
Its GI50 is 0.0957 µM (active).

And the GI50 (RXF 393)?
The GI50 was > 58.7 µM (inactive).

And the GI50 (HCT-15)?
The GI50 was 72.4 µM.

And the GI50 (U-251)?
The GI50 was 35 µM (inactive).

And the GI50 (IGROV-1)?
The GI50 was > 63 µM (inactive).

What about the GI50 (SK-OV-3) of the same compound?
Its GI50 is > 100 µM (inactive).

What about the GI50 (SF-539) of the same compound?
The GI50 was 77.3 µM (inactive).

What about the GI50 (SW-620) of the same compound?
Its GI50 is > 100 µM (inactive).

What about the GI50 (UACC-257) of the same compound?
The GI50 was > 31.7 µM (inactive).

What about the GI50 (A498) of the same compound?
Its GI50 is 5.77 µM (inactive).

And the GI50 (SF-268)?
The GI50 was > 42.4 µM (inactive).

What about the GI50 (DLD-1) of the same compound?
Its GI50 is > 100 µM (inactive).

What about the GI50 (HL-60) of the same compound?
Its GI50 is 1.67 µM (inactive).

What about the GI50 (LOX IMVI) of the same compound?
The GI50 was 3.03 µM (inactive).

What about the GI50 (MOLT-4) of the same compound?
Its GI50 is 330 nM (active).

And the GI50 (CAKI-1)?
Its GI50 is 5.25 µM (inactive).

And the GI50 (SNB-75)?
Its GI50 is > 48.9 µM (inactive).

What about the GI50 (K562) of the same compound?
The GI50 was > 100 µM (inactive).

What about the GI50 (NCI-H460) of the same compound?
The GI50 was 2.74 µM (inactive).

What about the GI50 (DMS-273) of the same compound?
Its GI50 is 36.7 µM (inactive).

And the GI50 (KM-20L2)?
Its GI50 is 11.4 µM (inactive).

And the GI50 (NCI/ADR-RES)?
Its GI50 is 68.9 µM (inactive).

What about the GI50 (HOP-18) of the same compound?
Its GI50 is 1 µM (active).

And the GI50 (CCRF-CEM)?
The GI50 was 203 nM (active).

And the GI50 (NCI-H23)?
The GI50 was 5.01 µM (inactive).

And the GI50 (OVCAR-8)?
The GI50 was 6.1 µM (inactive).

And the GI50 (NCI-H226)?
Its GI50 is 88.5 µM (inactive).

What about the GI50 (MCF7) of the same compound?
The GI50 was 8.09 µM (inactive).

What about the GI50 (NCI-H522) of the same compound?
The GI50 was 10.6 µM (inactive).

And the GI50 (SK-MEL-2)?
The GI50 was > 85.9 µM (inactive).

What about the GI50 (UACC-62) of the same compound?
Its GI50 is 26.4 µM (inactive).

And the GI50 (COLO 205)?
The GI50 was > 100 µM (inactive).

What about the GI50 (OVCAR-3) of the same compound?
The GI50 was > 100 µM (inactive).

What about the GI50 (Malme-3M) of the same compound?
The GI50 was > 21.2 µM (inactive).

What about the GI50 (OVCAR-5) of the same compound?
Its GI50 is 15.5 µM (inactive).

What about the GI50 (SNB-78) of the same compound?
Its GI50 is > 100 µM (inactive).
